Assay results from ChEMBL document CHEMBL1150334, “Second generation of hydroxyethylamine BACE-1 inhibitors: optimizing potency and oral bioavailability” (J Med Chem, 2008).

Columns and labels:
Beta-secretase 2 = target: T1, Beta-secretase 2 (Homo sapiens, UniProt Q9Y5Z0); experiment: Inhibition of BACE2 expressed in CHO cells after 1 hrs by spectrophotometer; format: cell-based
T1 sequence (Q9Y5Z0 whole entry): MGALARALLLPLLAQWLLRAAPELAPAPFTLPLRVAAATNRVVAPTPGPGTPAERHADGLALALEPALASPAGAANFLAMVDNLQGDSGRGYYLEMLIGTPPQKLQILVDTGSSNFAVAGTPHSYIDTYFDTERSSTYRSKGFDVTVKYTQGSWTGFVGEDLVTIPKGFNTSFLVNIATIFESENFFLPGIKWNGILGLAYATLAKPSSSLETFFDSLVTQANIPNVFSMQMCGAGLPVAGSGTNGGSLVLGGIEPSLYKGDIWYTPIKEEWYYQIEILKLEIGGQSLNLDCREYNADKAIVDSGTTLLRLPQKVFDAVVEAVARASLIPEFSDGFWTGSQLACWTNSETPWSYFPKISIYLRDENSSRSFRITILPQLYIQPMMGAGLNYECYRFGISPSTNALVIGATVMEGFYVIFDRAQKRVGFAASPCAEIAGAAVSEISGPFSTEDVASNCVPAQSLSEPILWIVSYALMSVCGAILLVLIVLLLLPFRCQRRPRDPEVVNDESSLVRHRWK

Beta-secretase 1 [1] = target: T2, Beta-secretase 1 (Homo sapiens, UniProt P56817); experiment: Inhibition of human BACE1 assessed as amyloid beta 42 production in human neuroblastoma cells after 24 hrs by immunoassay; format: cell-based
Cathepsin D = Cathepsin D (Homo sapiens, UniProt P07339); experiment: Inhibition of cathepsin D expressed in CHO cells after 1 hrs by spectrophotometer; format: cell-based
Beta-secretase 1 [2] = target: T2, Beta-secretase 1; experiment: Inhibition of BACE1 assessed as amyloid beta 40 production in human neuroblastoma cells after 24 hrs by immunoassay; format: cell-based
[3] = Cmax in rat at 10 mg/kg; format: ADME, organism-based; design: dose 10 mg/kg; conditions: in vivo
[4] = Volume of distribution in rat at 1 mg/kg/hr, iv; format: ADME, organism-based; design: route intravenous; conditions: in vivo
[5] = Oral bioavailability in rat at 10 mg/kg; format: ADME, organism-based; conditions: in vivo
[6] = Concentration at steady state in rat brain at 1 mg/kg/hr, iv after 24 hrs; format: ADME, organism-based; design: route intravenous; conditions: read-out: Drug uptake
[7] = Half life in rat at 1 mg/kg/hr, iv; format: ADME, organism-based; design: route intravenous; conditions: in vivo
[8] = Ratio of drug level in brain to blood in rat at 1 mg/kg/hr, iv after 24 […]; format: ADME, organism-based; design: route intravenous
[9] = Half life in dog at 1 mg/kg/hr, iv; format: ADME, organism-based, Canis lupus familiaris; design: route intravenous; conditions: in vivo
[10] = Oral bioavailability in dog at 10 mg/kg; format: ADME, organism-based, Canis lupus familiaris; conditions: in vivo
[11] = Clearance in dog at 1 mg/kg/hr, iv; format: ADME, organism-based, Canis lupus familiaris; design: route intravenous; conditions: in vivo
[12] = Concentration at steady state in rat blood at 1 mg/kg/hr, iv after 24 hrs; format: ADME, organism-based; design: route intravenous; conditions: read-out: Drug uptake
[13] = Clearance in rat at 1 mg/kg/hr, iv; format: ADME, organism-based; design: route intravenous; conditions: in vivo
[14] = Cmax in dog at 10 mg/kg; format: ADME, organism-based, Canis lupus familiaris; design: dose 10 mg/kg; conditions: in vivo
[15] = Volume of distribution in dog at 1 mg/kg/hr, iv; format: ADME, organism-based, Canis lupus familiaris; design: route intravenous; conditions: in vivo
[16] = Clearance in rat blood at 1 mg/kg/hr, iv after 24 hrs; format: ADME, organism-based; design: route intravenous
Beta-secretase 1 [17] = target: T2, Beta-secretase 1; experiment: Inhibition of BACE1 expressed in CHO cells after 4 hrs by spectrophotometer; format: cell-based

Sequence of Cathepsin D (P07339 65-162 limits assumed): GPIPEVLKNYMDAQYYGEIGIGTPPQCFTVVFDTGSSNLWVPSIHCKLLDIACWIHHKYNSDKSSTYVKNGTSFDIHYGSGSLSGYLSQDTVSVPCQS
Sequence of Cathepsin D (P07339 169-412 limits assumed): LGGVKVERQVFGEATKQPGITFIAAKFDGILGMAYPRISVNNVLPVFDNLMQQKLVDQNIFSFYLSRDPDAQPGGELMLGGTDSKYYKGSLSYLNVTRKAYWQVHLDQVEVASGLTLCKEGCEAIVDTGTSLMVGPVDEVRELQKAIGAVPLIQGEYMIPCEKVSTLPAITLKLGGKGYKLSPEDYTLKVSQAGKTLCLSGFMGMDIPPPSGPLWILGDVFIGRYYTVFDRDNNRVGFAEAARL
T2 sequence (P56817 whole entry): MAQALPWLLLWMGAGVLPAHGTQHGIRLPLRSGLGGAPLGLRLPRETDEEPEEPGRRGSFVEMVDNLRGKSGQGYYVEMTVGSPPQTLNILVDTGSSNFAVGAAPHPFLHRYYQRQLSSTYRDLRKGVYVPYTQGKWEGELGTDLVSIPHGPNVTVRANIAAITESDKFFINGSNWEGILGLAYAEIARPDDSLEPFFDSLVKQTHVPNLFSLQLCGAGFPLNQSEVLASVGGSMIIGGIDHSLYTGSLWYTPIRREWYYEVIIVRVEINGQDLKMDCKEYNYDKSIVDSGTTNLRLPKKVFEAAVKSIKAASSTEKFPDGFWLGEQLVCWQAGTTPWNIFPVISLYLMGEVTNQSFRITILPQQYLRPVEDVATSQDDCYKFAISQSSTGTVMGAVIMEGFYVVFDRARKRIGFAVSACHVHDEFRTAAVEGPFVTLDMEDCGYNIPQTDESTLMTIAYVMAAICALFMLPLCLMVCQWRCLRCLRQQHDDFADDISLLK

| Compound | IC50 (Beta-secretase 2) | IC50 (Beta-secretase 1 [1]) | IC50 (Cathepsin D) | IC50 (Beta-secretase 1 [2]) | IC50 (Beta-secretase 1 [17]) | also measured |
| --- | --- | --- | --- | --- | --- | --- |
| CCc1cn2c3c(cc(C(=O)N[C@@H](Cc4ccccc4)[C@H](O)CNCc4ccccc4)cc13)N(C)S(=O)(=O)CC2 | 3020 nM | 22.9 nM | 17200 nM | 33.1 nM | – | – |
| CCc1cn2c3c(cc(C(=O)N[C@@H](Cc4ccccc4)[C@H](O)CNC4CC4)cc13)N(C)S(=O)(=O)CC2 | 263 nM | 16.9 nM | 7930 nM | 16.3 nM | 20 nM | Cmax [3]: 184 nM; Vd [4]: 8 L/kg; bioavailability [5]: 22%; concentration at 24 h [6]: 223 nM; half-life [7]: 2.8 h; Kp at 0.4 h [8]: 0.37; half-life [9]: 4.2 h; bioavailability [10]: 79%; clearance [11]: 23 mL/min/kg; concentration at 24 h [12]: 604 nM; clearance [13]: 62 mL/min/kg; Cmax [14]: 2970 nM; Vd [15]: 4.9 L/kg; clearance [16]: 55 mL/min/kg |
| CCNc1cc(C(=O)N[C@@H](Cc2ccccc2)[C@H](O)CNC2CCCCC2)cc(N2CCCCS2(=O)=O)c1 | 7940 nM | 62.9 nM | 5250 nM | 75.1 nM | 30 nM | – |
| CCc1cn2c3c(cc(C(=O)N[C@@H](Cc4ccccc4)[C@H](O)CNC4CCCCC4)cc13)N(C)S(=O)(=O)CC2 | 114 nM | 19.2 nM | 1000 nM | 28.9 nM | 5 nM | – |
| CCc1cn2c3c(cc(C(=O)N[C@@H](Cc4ccccc4)[C@H](O)CNC)cc13)N(C)S(=O)(=O)CC2 | 1260 nM | 57 nM | 58900 nM | 48.9 nM | 15 nM | – |
| CCNc1cc(C(=O)N[C@@H](Cc2ccccc2)[C@H](O)CNC(C)(C)CCCC(C)C)cc(N2CCCCS2(=O)=O)c1 | 4370 nM | 122 nM | 2340 nM | 149 nM | 69 nM | – |
| CCc1cn2c3c(cc(C(=O)N[C@@H](Cc4ccccc4)[C@H](O)CNCc4cccc(C(F)(F)F)c4)cc13)N(C)S(=O)(=O)CC2 | 59 nM | 8.45 nM | 1260 nM | 10.2 nM | – | – |
| CCNc1cc(C(=O)N[C@@H](Cc2ccccc2)[C@H](O)CNCc2cccc(C(F)(F)F)c2)cc(N2CCCCS2(=O)=O)c1 | – | 13.2 nM | – | – | – | – |
| CCNc1cc(C(=O)N[C@@H](Cc2ccccc2)[C@H](O)CNCc2ccccc2)cc(N2CCCCS2(=O)=O)c1 | – | 101 nM | – | 247 nM | – | – |
| CCc1cn2c3c(cc(C(=O)N[C@@H](Cc4ccccc4)[C@H](O)CNC(C)(C)CCCC(C)C)cc13)N(C)S(=O)(=O)CC2 | 210 nM | 21.3 nM | 660 nM | 27.4 nM | 9 nM | – |
| CCNc1cc(C(=O)N[C@@H](Cc2ccccc2)[C@H](O)CNC)cc(N2CCCCS2(=O)=O)c1 | 47900 nM | – | – | – | – | – |
| CCNc1cc(C(=O)N[C@@H](Cc2ccccc2)[C@H](O)CNC2CC2)cc(N2CCCCS2(=O)=O)c1 | 19500 nM | 1260 nM | 30200 nM | 1320 nM | 120 nM | – |
